This data set is described as follows: Human HepG2 cell viability assay in 384 well format. It is filed as toxicity, cell-based. More on the design: dose 125 nL, time 70.5 hour; cytotoxicity at 70.5 h: concentration not given beside the values. To be noted: HepG2 cells, read-out: Inhibition.

Turning to `CN(Cc1ccccn1)C1COC2(CCN(Cc3cccnc3)CC2)C1` (centres undefined), the cytotoxicity at 70.5 h came out at 24.4%.
Turning to `COc1ccc(C(=O)N2Cc3c(Cn4ccnc4)nn(C)c3C2)cc1`, the cytotoxicity at 70.5 h was -8.74%.
As for `O=C1[C@@H]2CCN(Cc3ccncc3)C[C@@H]2OCCN1c1ccccc1`, the figure is -8.52%; as for `Cc1occc1C(=O)N1CCC2(CC1)C(c1cnn(C)c1)CC(=O)N2C` (centres undefined), 4.52%.
Consider `C[C@H]1C[C@@H]2CCN(Cc3ccccn3)C[C@H]2O1`, for which the cytotoxicity at 70.5 h was -0.0314%.
As for `c1cnc(N2CCCC3(CCN(Cc4ccncc4)C3)C2)nc1` (centres undefined), the figure is -13.2%.
As for `O=C(c1cscn1)N1CCC2(CCN(Cc3nccs3)C2)CC1`, the cytotoxicity at 70.5 h was -12.2%.
Turning to `Cc1ccc(CN2CC[C@H]3OCC[C@@H](c4nc(C)no4)[C@H]3C2)cc1`, the cytotoxicity at 70.5 h was -11.4%.
Regarding `O=C(c1ccnnc1)N1C[C@H]2CCC[C@@]2(COCC2CCOCC2)C1`, the cytotoxicity at 70.5 h was -13%.
Then `CCOCC1CN(C(=O)C2=CCCC2)Cc2cnn(CC)c21` (centres undefined), with -16.7%; and `Cc1occc1C(=O)N1CCC2(CC1)NC(=O)CC2c1cnn(C)c1` (centres undefined), with -10.3%; and `CC(C)NC(=O)C1CN(C(=O)Nc2ccccc2)CC12CCOCC2` (centres undefined), with 22%.
Then `CCOCC1CN(Cc2cnn(C)c2)Cc2ncn(CC3CC3)c21` (centres undefined), with 23.1%; and `CCCNC(=O)c1cc2c(c3ccccc3n2C)n1C(=O)N(C)C`, with -5.66%; and `CS(=O)(=O)NCc1ncn2c1CN(C(=O)CC1CCCC1)CCC2`, with -5.42%.
As for `Cc1ncccc1NC(=O)C1=NOC2(CCN(Cc3nccs3)C2)C1` (centres undefined), the figure is -11.1%; as for `CC(C)c1nccn1C(C)C(=O)NCc1noc(Cc2cccs2)n1` (centres undefined), 21.9%; as for `Cc1ccc2[nH]c(-c3cn(C4CCNCC4)nn3)nc2c1C`, -3.44%.
For the compound `CCN(Cc1cccc(C(=O)Nc2c(C)cnn2C)c1)[C@H]1COC[C@@H]1O`, the cytotoxicity at 70.5 h was -2.17%.
On to `Cc1cccc(CN2CCC(Cc3ccccc3F)CC2)n1`, for which the cytotoxicity at 70.5 h came out at 0.263%.
With `O=C1CCCCN1CCCC(=O)N1CCC2(CC1)[C@H](O)C[C@@H]2O`, the cytotoxicity at 70.5 h is -4.17%.
`COc1ccccc1[C@@H]1CN(C(=O)Cc2csc(C)n2)C[C@H]1C(=O)O`: the cytotoxicity at 70.5 h was 12.8%.
Then `CCO[C@H]1CN(C)C[C@@H]1NC(=O)c1cc(C)nc2c(C)cccc12`, with -8.5%.
Then `CN1CCN(C[C@H]2CC[C@@H](Cc3ccc4c(c3)OCO4)O2)CC1`, with -6.19%; and `CCSc1ccc(C(=O)N2CC[C@](O)(CC)[C@H](O)C2)s1`, with 22.5%.
Then `CCCc1nc(NC2(COC)CCCC2)c2cnn(C)c2n1`, with -4.69%; and `COCC1(C(=O)N[C@H]2CN(c3noc(C)n3)C[C@@H]2C2CC2)CCC1`, with -1.28%; and `c1cc(-c2nc3c(c(NCCn4ccnn4)n2)CCNCC3)ccn1`, with 0.89%.
Take `CCc1ccc2nc(C)cc(C(=O)NC3CCNC3=O)c2c1` (centres undefined): the cytotoxicity at 70.5 h came to 0.829%.
In the case of `Cc1cc(=O)c2ccccc2n1CC1CCNC1` (centres undefined), the cytotoxicity at 70.5 h was -1.77%.
Take `NC(=O)c1cc2c(nc1Oc1ccccc1CN1CCCCC1)CCC2`: the cytotoxicity at 70.5 h is -15%.
With `CCN(CCn1cccn1)Cc1nc(-c2cc(F)ccc2F)oc1C`, the cytotoxicity at 70.5 h was -11.2%.
Then `O=C(c1cscn1)N1CCCCC1c1nc2cc(F)ccc2[nH]1` (centres undefined), with -1.08%; and `CC(C)c1ncc(CN2C[C@@H](CN3CCCCC3)[C@@H](CO)C2)cn1`, with -2.58%.
As for `O=C(C1CCOCC1)N1CCOC(CC2CCCCC2)C1` (centres undefined), the figure is -8.55%; as for `O=C(N1CCCC1)N1C[C@H]2CC[C@@H]1CN(Cc1ccncc1)C2`, 17.1%; as for `CCC[C@H]1CN(Cc2ccc(N(C)C)nc2)C[C@@H]1NC(=O)CO`, -6.62%.
As for `c1ccc(-c2nc3c(c(NCCn4cccc4)n2)CCNCC3)nc1`, the figure is -14.1%; as for `CCCc1nc(C)cc(NCc2ccc(S(N)(=O)=O)cc2)n1`, -16.8%; as for `COc1ncccc1CN1CC[C@@]2(O)CCN(C(=O)C3CCC3)C[C@H]2C1`, -5.11%.
For `COc1ccccc1OCCCN1CCNC1=O`, the cytotoxicity at 70.5 h was -8.47%.
As for `c1cnc(N2C[C@@H]3CC[C@H](C2)N(Cc2ccsc2)C3)nc1`, the figure is -9.26%; as for `Cc1ccc(N2C[C@@H]3CN(C(=O)NC4CCCC4)C[C@]3(C(=O)O)C2)nn1`, 2.02%.
With `C=C1C(C)(C)[C@H]2CC[C@]1(C(=O)N1CCC(n3cc(CCO)nn3)CC1)C2`, the cytotoxicity at 70.5 h was -10.3%.
As for `COc1ccccc1S(=O)(=O)N1CCC2(CC1)[C@H](O)C[C@@H]2O`, the figure is -10.2%; as for `O=C(c1ccc2c(c1)[nH]c(=O)n2[C@H]1CC[C@H](O)CC1)N1CCOCC1`, -12.1%; as for `CN(Cc1cnc(N)nc1)C(=O)c1coc(COc2cccc(F)c2)n1`, 0.199%.
Then `Cc1n[nH]c(C)c1CCc1n[nH]c(=O)n1Cc1cccs1`, with -0.375%; and `Cc1cc(C)n(CC(C)Nc2nc(-c3ccncc3)nc3c2CNC3)n1` (centres undefined), with 17.3%; and `CCN1CCN(C[C@@H]2CN(c3ncc(Cl)cc3F)C[C@@H]2CO)CC1`, with -10.9%.
As to `CSCC[C@H](N)C(=O)NCc1cc2n(n1)CCCN(C(=O)N(C)C)C2`, the cytotoxicity at 70.5 h was -8.91%.
Regarding `NC1CCCCN(Cc2cc(C3CCCCC3)no2)C1` (centres undefined), the cytotoxicity at 70.5 h is -7.91%.
As for `Cc1ccc(NC(=O)CN[C@H](C(N)=O)C(C)C)cc1F`, the figure is 13.9%; as for `Cc1cc(C)cc(CN2CCN(Cc3cc(C#N)n(C)c3)CC2=O)c1`, -6.92%; as for `CS(=O)(=O)c1ccc(-c2cc(C3CC3)c(C#N)c(N)n2)cc1`, 0.0408%.
`CC(C)=CCN1CCN(Cc2cc(C)c(O)c(C)c2)CC1CCO` (centres undefined): the cytotoxicity at 70.5 h turned out to be 9.39%.
Turning to `O=C1CCC2(CCN(Cc3nccs3)CC2)CN1CCCO`, the cytotoxicity at 70.5 h is -6.67%.
As for `COc1ccc(C(=O)N2CCC3(CC2)c2ccccc2[C@@H](N)[C@@H]3O)cc1`, the figure is 0.101%; as for `Cc1nnsc1C(=O)N1CCN(C(=O)C2CCC2)[C@@H]2CS(=O)(=O)C[C@@H]21`, -10.8%.
Then `O=c1cc(N2CCCC2)cnn1CC(F)F`, with -6.13%.
As for `Cn1ccnc1-c1cn(CCCc2nnc(N)s2)nn1`, the figure is -19.9%; as for `CCC1CN(C(=O)c2cc(C(C)=O)c(C)[nH]c2=O)CCN1C(C)C` (centres undefined), -9.37%.
Regarding `O=C(NCCO)c1coc(CN2CCN(c3ccccc3F)CC2)n1`, the cytotoxicity at 70.5 h is -5.22%.
Turning to `COCCN1C(=O)[C@H]2CC[C@@H]1CN(Cc1nnc(C3CC3)o1)C2`, the cytotoxicity at 70.5 h came out at 19.1%.
As for `CCCc1ccc2oc(C(=O)N3CCCN(C)CC3)c(C)c2c1`, the figure is -2.52%.
Then `CCc1ncc2c(n1)CN(C(=O)c1c(C)[nH]c(C(C)=O)c1C)C2`, with -9.15%.
On to `CCN1CCCC(C)(C(=O)NCc2nnnn2-c2ccccc2)C1` (centres undefined), for which the cytotoxicity at 70.5 h was -5.49%.
Then `COc1ccc2c(c1)C(C(=O)N(C)CCc1scnc1C)CC(=O)N2` (centres undefined), with -5.27%; and `CCCn1cc(C(=O)NCCC(=O)NC2CCCCC2)c(C)n1`, with -4.38%.
In the case of `Cc1cc(C)c2nc(CN3CCC(C#N)CC3)cc(O)c2c1`, the cytotoxicity at 70.5 h was -1.43%.
Then `CN(C)S(=O)(=O)N1C[C@@H]2CC[C@H](C1)N(Cc1cccc(C#N)c1)C2`, with -8.84%.
As for `CN(Cc1ccoc1)C(=O)Cn1ncc(N(C)C)cc1=O`, the figure is 9.67%; as for `Cc1nn(CC(=O)NCCc2ccncc2)c(=O)n1Cc1ccccc1`, 1.25%.
For the compound `CN(Cc1nc(CC2CC2)no1)CC1COc2ccccc2O1` (centres undefined), the cytotoxicity at 70.5 h is -3.03%.
As for `CC(C)n1ccnc1CN1C(=O)OC[C@@H]1c1ccccc1`, the figure is -2.47%.
As to `FC(F)(F)C1CN(Cc2cnc3c(-c4ccccc4)cnn3c2)CCO1` (centres undefined), the cytotoxicity at 70.5 h was -7.58%.
As for `CN(C)c1nc2c(c(N3CCCC3)n1)CCN(C(=O)c1ccc[nH]1)CC2`, the figure is 25.5%.
Regarding `O=C(c1cccc(Cl)c1)N1CC[C@H]2[C@H]1CCN2CC1CCOCC1`, the cytotoxicity at 70.5 h was -8.99%.
Consider `COc1ccc(CN2CC[C@H]3[C@H]2CCN3C(=O)c2cnn(C)c2)cc1`, for which the cytotoxicity at 70.5 h was -0.0414%.
Turning to `NC(=O)N1C[C@H]2CN(Cc3nccs3)C[C@H]2C1`, the cytotoxicity at 70.5 h was -18.2%.
Then `O=C1[C@H]2CN(CC3CC3)C[C@H]2CN1Cc1cccc(F)c1`, with -7.25%; and `CN(C)c1ncnc2c1CCN(CC1CCOC1)CC2` (centres undefined), with -14.4%; and `Cn1ccnc1CN1CCC2(CC(=O)N(c3cncnc3)C2)C1` (centres undefined), with -14.3%.
Then `Cn1cc(C(=O)N2CC[C@@H]3[C@@H]2CCN3Cc2cccc(F)c2)cn1`, with -6.38%; and `CS(=O)(=O)N[C@@H]1CN(C(=O)c2ccccn2)[C@@H]2CCCO[C@@H]21`, with -5.15%.
On to `COC[C@]12COC[C@H]1CN(Cc1cc(OC)cc(OC)c1)C2`, for which the cytotoxicity at 70.5 h was -10.3%.
On to `CCc1cnc(N2CC3(CCN(Cc4ccsc4)C3)C2)nc1`, for which the cytotoxicity at 70.5 h was 18.4%.
Then `CCOCC1CN(Cc2cnn(C)c2)Cc2nn(C)cc21` (centres undefined), with 2.42%.
With `CC(C)N1CCO[C@H]2CN(C(=O)c3ccoc3)C[C@H]21`, the cytotoxicity at 70.5 h is -4.51%.
On to `Cn1cc(N2CCC3(CCN(Cc4cccnc4)C3)C2=O)cn1` (centres undefined), for which the cytotoxicity at 70.5 h is -17.1%.
As for `COc1cc(N2C[C@@H]3COC[C@]3(COc3cccnc3)C2)ncn1`, the figure is -5%; as for `Fc1cnc(N2CCOC3(CCN(Cc4ccsc4)CC3)C2)nc1`, 8.85%.
Then `CCN1CCO[C@]2(CCC[C@H]2COCc2csc(C)n2)C1`, with -7.19%; and `Cc1nc(CN2CCN(Cc3ccoc3)Cc3cccnc32)cs1`, with 32.4%.

The values above are taken from ChEMBL document CHEMBL3507680, “University of Dundee, Gates Library screen for HepG2 cell viability”.
